{"source": "patent US20190350940A1", "about": "“PLATINUM COMPOUNDS, COMPOSITIONS, AND USES THEREOF” (priority 2015, published 2019)", "key": {"CYP2C9": {"molecular_target": "CYP2C9 (Homo sapiens, UniProt P11712)", "sequence (P11712 whole entry)": "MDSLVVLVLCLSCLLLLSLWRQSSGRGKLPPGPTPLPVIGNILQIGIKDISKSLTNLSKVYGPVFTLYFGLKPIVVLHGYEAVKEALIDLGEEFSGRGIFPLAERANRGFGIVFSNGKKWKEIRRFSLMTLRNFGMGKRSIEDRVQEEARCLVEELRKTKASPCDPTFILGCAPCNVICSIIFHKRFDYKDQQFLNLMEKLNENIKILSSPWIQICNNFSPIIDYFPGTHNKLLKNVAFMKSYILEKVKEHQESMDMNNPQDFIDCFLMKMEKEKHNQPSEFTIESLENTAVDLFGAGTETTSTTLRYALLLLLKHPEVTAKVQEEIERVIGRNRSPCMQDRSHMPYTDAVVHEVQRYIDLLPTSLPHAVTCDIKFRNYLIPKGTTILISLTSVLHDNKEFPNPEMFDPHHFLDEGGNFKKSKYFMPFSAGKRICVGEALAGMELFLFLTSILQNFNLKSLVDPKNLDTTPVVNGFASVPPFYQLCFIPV", "experiment": "CYP inhibition, 2C9", "type": "in vitro ADME"}, "[1]": {"system": "A2780 human ovarian cancer", "experiment": "A2780 ovarian xenograft model", "type": "in vivo, mouse", "details": "mouse, in vivo, 20 mg/kg", "description": "The effect of Compound 8 on tumor growth inhibition (TGI) was evaluated in the A2780 human ovarian cancer nude mouse (female Crl:NU(NCr)-Foxn1^nu) xenograft model."}, "hERG": {"molecular_target": "T1, hERG (Homo sapiens, UniProt Q12809)", "T1 construct": "host or cells: membrane preparations", "T1 sequence (Q12809 whole entry)": "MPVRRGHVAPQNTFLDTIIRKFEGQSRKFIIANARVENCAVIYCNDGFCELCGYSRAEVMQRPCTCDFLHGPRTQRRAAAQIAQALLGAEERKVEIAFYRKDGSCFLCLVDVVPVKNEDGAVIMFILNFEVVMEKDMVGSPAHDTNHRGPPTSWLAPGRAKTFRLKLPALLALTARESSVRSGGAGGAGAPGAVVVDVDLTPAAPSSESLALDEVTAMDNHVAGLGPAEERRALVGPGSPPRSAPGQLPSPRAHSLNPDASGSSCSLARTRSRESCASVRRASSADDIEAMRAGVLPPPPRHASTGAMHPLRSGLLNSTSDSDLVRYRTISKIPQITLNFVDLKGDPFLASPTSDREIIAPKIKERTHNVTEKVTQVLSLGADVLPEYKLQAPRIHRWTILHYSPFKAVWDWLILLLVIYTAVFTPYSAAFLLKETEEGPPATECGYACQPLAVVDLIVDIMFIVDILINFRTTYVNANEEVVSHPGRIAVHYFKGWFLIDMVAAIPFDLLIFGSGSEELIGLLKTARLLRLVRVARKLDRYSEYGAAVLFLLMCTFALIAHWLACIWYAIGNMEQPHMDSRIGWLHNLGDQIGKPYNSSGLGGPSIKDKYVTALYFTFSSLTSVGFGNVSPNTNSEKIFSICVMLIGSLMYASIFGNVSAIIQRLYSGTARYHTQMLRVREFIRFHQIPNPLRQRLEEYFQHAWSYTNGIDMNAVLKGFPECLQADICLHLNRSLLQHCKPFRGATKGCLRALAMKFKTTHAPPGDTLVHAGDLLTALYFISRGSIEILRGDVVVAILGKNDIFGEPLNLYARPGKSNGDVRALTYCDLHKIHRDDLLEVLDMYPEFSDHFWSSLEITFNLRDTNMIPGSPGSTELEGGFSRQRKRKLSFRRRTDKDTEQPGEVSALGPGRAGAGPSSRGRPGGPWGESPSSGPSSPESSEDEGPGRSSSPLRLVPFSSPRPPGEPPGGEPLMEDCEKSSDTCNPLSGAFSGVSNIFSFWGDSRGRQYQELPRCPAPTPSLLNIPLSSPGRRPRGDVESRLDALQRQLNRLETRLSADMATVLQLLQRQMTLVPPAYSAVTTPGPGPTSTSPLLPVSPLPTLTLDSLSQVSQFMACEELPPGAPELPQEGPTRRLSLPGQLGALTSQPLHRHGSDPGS", "experiment": "Binding to membrane preparations of hERG using a radiolabeled antagonist", "description": "An in vitro evaluation of the binding of Compound 8 to membrane preparations of hERG using a radiolabeled antagonist was performed."}}}
{"molecule": "CC(=O)[O][Pt]([NH2])([NH2])([Cl])([Cl])[O]C(=O)NCCCCCN1C(=O)C=CC1=O", "note": "[Compound 8]", "values": [{"measurement": "IC50", "setting": "CYP2C9", "result": 0.95, "unit": "µM"}, {"measurement": "Mean maximal BW loss", "setting": "[1]", "result": 7.4, "unit": "%"}, {"measurement": "hERG binding finding", "setting": "hERG; 3 uM, conjugated to human serum albumin", "result": "no evidence for significant cardiovascular toxicity"}, {"measurement": "hERG binding finding", "setting": "hERG; 10 uM, unconjugated to human serum albumin", "result": "no evidence for significant cardiovascular toxicity"}]}
